Consider 1 molecule from BindingDB's records for patent US20250059185 (Hoffmann-La Roche, 2025).

This assay concerns the target T1, Monoglyceride lipase (Homo sapiens, UniProt Q99685).
T1 sequence (Q99685 whole entry): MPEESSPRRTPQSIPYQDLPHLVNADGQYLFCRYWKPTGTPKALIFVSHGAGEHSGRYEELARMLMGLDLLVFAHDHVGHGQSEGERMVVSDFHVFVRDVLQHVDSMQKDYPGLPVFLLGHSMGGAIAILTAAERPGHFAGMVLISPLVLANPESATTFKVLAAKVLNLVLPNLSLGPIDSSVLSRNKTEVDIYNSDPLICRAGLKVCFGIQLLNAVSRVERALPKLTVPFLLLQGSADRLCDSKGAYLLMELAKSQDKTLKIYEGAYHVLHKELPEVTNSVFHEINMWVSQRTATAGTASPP
Briefly: MAGL Inhibitory Activity Assay. The procedure:
MAGL inhibitory activity by determining the enzymatic activity by following the hydrolysis of the natural substrate 2-arachidonoylglycerol (2-AG) resulting in arachidonic acid, which can be followed by mass spectrometry. This assay is hereinafter abbreviated “2-AG assay”. The 2-AG assay was carried out in 384 well polypropylene assay plates. Compound dilutions were made in 100% DMSO in a polypropylene plate in 3-fold dilution steps to give a final concentration range in the assay from 12.5 μM to 0.8 pM. Compound dilutions were added to MAGL protein in assay buffer (50 mM TRIS, 1 mM EDTA, 0.01% (v/v) Tween-20, 2.5% (v/v) DMSO). After shaking, the plate was incubated for 15 min at RT. To start the reaction, 2-arachidonoylglycerol in assay buffer was added. The final concentrations in the assay was 50 pM for MAGL protein and […] 2-arachidonoylglyerol. After shaking and 30 min incubation at RT, the reaction was quenched by the addition of two assay volumes of acetonitrile containing 4 μM of d8-arachidonic acid. The amount of arachidonic acid formed was traced by an online SPE system (Agilent Rapidfire) coupled to a triple quadrupole mass spectrometer.

For the molecule `COc1cccc(C(=O)N2CCc3c(nn(C)c3-c3cc(Cl)cc(CC(N)=O)c3)[C@H]2C)c1Cl` [US20250059185, Example 15], the IC50 (commonly the concentration that inhibits the measured activity by half) was determined as 152 nM.
